What was measured:
[1] = target: His-BIR2-3 (125-356, C202A/C213G, XIAP) (Homo sapiens (Human), UniProt P98170, C202A/C213G); experiment: XIAP-BIR2-3 Dimeric SMAC Peptide Homogeneous Time Resolved Fluorescence (HTRF) Assay; assay type: binding; conditions: fluorescein labeled dimeric SMAC peptide
Method: D. XIAP-BIR2-3 Dimeric SMAC Peptide Homogeneous Time Resolved Fluorescence (HTRF) Assay
(§1) Assays were performed in black, flat-bottom, 384-well plates.

[2] = target: His-BIR3 (241-356, XIAP) (Homo sapiens (Human), UniProt P98170); experiment: XIAP-BIR3/SMAC Homogeneous Time Resolved Fluorescence (HTRF) Assay; assay type: binding; conditions: fluorescein labeled SMAC peptide
Method: B. XIAP-BIR3/SMAC Homogeneous Time Resolved Fluorescence (HTRF) Assay
as §1

Molecule `CN[C@@H](C)C(=O)N[C@H](C(=O)N1C[C@@H](NC(=O)c2ccc(C(=O)Nc3ccc4c(c3)CN(C(=O)[C@@H](NC(=O)[C@H](C)NC)C(C)(C)SCC(=O)N3CCCCC3)[C@H](C(=O)N[C@@H]3CCCc5ccccc53)C4)cc2)C[C@H]1C(=O)N[C@@H]1CCCc2ccccc21)C(C)(C)C` [Example 58, N^1-((3S,5S)-1-((S)-3,3-Dimethyl-2-((S)-2-(methylamino)propanamido)butanoyl)-5-(((R)-1,2,3,4-tetrahydronaphthalen-1-yl)carbamoyl)pyrrolidin-3-yl)-N^4—((S)-2-((R)-3-methyl-2-((S)-2-(methylamino)propanamido)-3-((2-oxo-2-(piperidin-1-yl)ethyl)thio)butanoyl)-3-(((R)-1,2,3,4-tetrahydronaphthalen-1-yl)carbamoyl)-1,2,3,4-tetrahydroisoquinolin-7-yl)terephthalamide] has an IC50 [1] of 18 nM and an IC50 [2] of 27 nM.

In the case of `CN[C@@H](C)C(=O)N[C@H](C(=O)N1C[C@@H](NC(=O)c2ccc(C(=O)Nc3ccc4c(c3)CN(C(=O)[C@@H](NC(=O)[C@H](C)NC)C(C)(C)SCC(=O)N(C)Cc3cccc(F)c3)[C@H](C(=O)N[C@@H]3CCCc5ccccc53)C4)cc2)C[C@H]1C(=O)N[C@@H]1CCCc2ccccc21)C(C)(C)C` [Example 62, N^1-((3S,5S)-1-((S)-3,3-Dimethyl-2-((S)-2-(methylamino)propanamido)butanoyl)-5-(((R)-1,2,3,4-tetrahydronaphthalen-1-yl)carbamoyl)pyrrolidin-3-yl)-N^4-((S)-2-((R)-3-((2-((3-fluorobenzyl)(methyl)amino)-2-oxoethyl)thio)-3-methyl-2-((S)-2-(methylamino)propanamido)butanoyl)-3-(((R)-1,2,3,4-tetrahydronaphthalen-1-yl)carbamoyl)-1,2,3,4-tetrahydroisoquinolin-7-yl)terephthalamide], the IC50 [1] is reported as 58 nM and the IC50 [2] is reported as 73 nM.

`CN[C@@H](C)C(=O)N[C@H](C(=O)N1C[C@@H](NC(=O)c2ccc(C(=O)Nc3ccc4c(c3)CN(C(=O)[C@@H](NC(=O)[C@H](C)NC)C(C)(C)SCC(=O)OC)[C@H](C(=O)N[C@@H]3CCCc5ccccc53)C4)cc2)C[C@H]1C(=O)N[C@@H]1CCCc2ccccc21)C(C)(C)C` [Example 56, Methyl 2-(((R)-4-((S)-7-(4-(((3S,5S)-1-((S)-3,3-dimethyl-2-((S)-2-(methylamino)propanamido)butanoyl)-5-(((R)-1,2,3,4-tetrahydronaphthalen-1-yl)carbamoyl)pyrrolidin-3-yl)carbamoyl)benzamido)-3-(((R)-1,2,3,4-tetrahydronaphthalen-1-yl)carbamoyl)-3,4-dihydroisoquinolin-2(1H)-yl)-2-methyl-3-((S)-2-(methylamino)propanamido)-4-oxobutan-2-yl)thio)acetate] gave an IC50 [1] of 12 nM and an IC50 [2] of 17 nM.

Source: patent US9783573B2, “IAP antagonists” (BRISTOL-MYERS SQUIBB COMPANY, priority 2012, dated 2017)
